Assay results published in PubChem BioAssay AID248 (DTP/NCI, 2004).
“And” between values parts separate entries of the source, which are not always exact repeats. Identical values can stand only once. Toxic doses and inconclusive results are not listed.

System: L1210 leukemia ip in BDF1 mice, survival T/C
Test: NCI In Vivo Anticancer Drug Screen. Data for tumor model L1210 Leukemia (intraperitoneal) in B6D2F1 (BDF1) mice
Conditions: endpoint: mean survival time, higher = longer survival
Outline: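 Value reflects the ratio of survival in compound-treated mice to survival in vehicle-treated controls, with both groups carrying the same transplanted tumor.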

[1] = dose: 100.0 mg/kg/injection, schedule: Q01DX001 (ip), vehicle: other
[2] = dose: 200.0 mg/kg/injection, schedule: Q01DX001 (ip), vehicle: other
[3] = dose: 400.0 mg/kg/injection, schedule: Q01DX001 (ip), vehicle: other
[4] = dose: 100.0 mg/kg/injection, schedule: Q04DX003 (ip), vehicle: saline with Tween-80
[5] = dose: 200.0 mg/kg/injection, schedule: Q04DX003 (ip), vehicle: saline with Tween-80
[6] = dose: 400.0 mg/kg/injection, schedule: Q04DX003 (ip), vehicle: saline with Tween-80
[7] = dose: 100.0 mg/kg/injection, schedule: Q01DX009 (ip), vehicle: saline
[8] = dose: 100.0 mg/kg/injection, schedule: Q04DX003 (ip), vehicle: saline
[9] = dose: 200.0 mg/kg/injection, schedule: Q04DX003 (ip), vehicle: saline
[10] = dose: 100.0 mg/kg/injection, schedule: Q01DX009 (ip), vehicle: Klucel (hydroxypropylcellulose) (HPC)
[11] = dose: 100.0 mg/kg/injection, schedule: Q04DX003 (ip), vehicle: Klucel (hydroxypropylcellulose) (HPC)
[12] = dose: 200.0 mg/kg/injection, schedule: Q01DX009 (ip), vehicle: Klucel (hydroxypropylcellulose) (HPC)
[13] = dose: 200.0 mg/kg/injection, schedule: Q04DX003 (ip), vehicle: Klucel (hydroxypropylcellulose) (HPC)
[14] = dose: 400.0 mg/kg/injection, schedule: Q04DX003 (ip), vehicle: Klucel (hydroxypropylcellulose) (HPC)
[15] = dose: 400.0 mg/kg/injection, schedule: Q04DX003 (ip), vehicle: saline
[16] = dose: 100.0 mg/kg/injection, schedule: Q04DX002 (ip), vehicle: saline with Tween-80
[17] = dose: 200.0 mg/kg/injection, schedule: Q04DX002 (ip), vehicle: saline with Tween-80
[18] = dose: 400.0 mg/kg/injection, schedule: Q04DX002 (ip), vehicle: saline with Tween-80
[19] = dose: 100.0 mg/kg/injection, schedule: Q01DX001 (ip), vehicle: saline
[20] = dose: 100.0 mg/kg/injection, schedule: Q01DX009 (ip), vehicle: saline with Tween-80
[21] = dose: 200.0 mg/kg/injection, schedule: Q01DX001 (ip), vehicle: saline
[22] = dose: 200.0 mg/kg/injection, schedule: Q01DX009 (ip), vehicle: saline with Tween-80
[23] = dose: 400.0 mg/kg/injection, schedule: Q01DX001 (ip), vehicle: saline

O=C1NCC2CCc3c(ccc4ccccc34)N12 (configuration not stated)
T/C [1]: 100 % of control | T/C [2]: 94 % of control | T/C [3]: 93 % of control

O=[N+]([O-])c1ccc(/C=N/N2CCCCC2)s1
T/C [4]: 97 % of control | T/C [5]: 92 % of control | T/C [6]: 89 % of control

CCCCCCCCCCCCNC(=O)C[n+]1cccc(C(=O)N(C)C)c1
T/C (dose: 5.0 mg/kg/injection, schedule: Q04DX003 (ip), vehicle: saline): 93 % of control | T/C (dose: 10.0 mg/kg/injection, schedule: Q04DX003 (ip), vehicle: saline): 96 % of control | T/C (dose: 20.0 mg/kg/injection, schedule: Q04DX003 (ip), vehicle: saline): 93 % of control

O=C1CCCCCC2CC12 (configuration not stated)
T/C (dose: 100.0 mg/kg/injection, schedule: Q04DX002 (sc), vehicle: olive oil, sesame oil, peanut oil): 105 % of control | T/C (dose: 200.0 mg/kg/injection, schedule: Q04DX002 (sc), vehicle: olive oil, sesame oil, peanut oil): 112 % of control | T/C (dose: 400.0 mg/kg/injection, schedule: Q04DX002 (sc), vehicle: olive oil, sesame oil, peanut oil): 109 % of control

O=[N+]([O-])c1ccc(NN=C(C2CC2)C2CC2)c([N+](=O)[O-])c1
T/C [1]: 95 % of control | T/C [2]: 98 % of control | T/C [3]: 88 % of control

C=CCNC(=O)c1ccccc1OCC(=O)O
T/C (dose: 100.0 mg/kg/injection, schedule: Q01DX009 (ip), vehicle: gum acacia): 93 % of control | T/C (dose: 100.0 mg/kg/injection, schedule: Q04DX003 (ip), vehicle: gum acacia): 103 % of control | T/C (dose: 200.0 mg/kg/injection, schedule: Q01DX009 (ip), vehicle: gum acacia): 88 % of control | T/C (dose: 200.0 mg/kg/injection, schedule: Q04DX003 (ip), vehicle: gum acacia): 100 % of control | T/C (dose: 400.0 mg/kg/injection, schedule: Q01DX009 (ip), vehicle: gum acacia): 94 % of control | T/C (dose: 400.0 mg/kg/injection, schedule: Q04DX003 (ip), vehicle: gum acacia): 97 % of control

CCOC1OCN(C)CC1(C)C (configuration not stated)
T/C (dose: 50.0 mg/kg/injection, schedule: Q01DX009 (ip), vehicle: saline): 93 % of control | T/C [7]: 109 % of control | T/C [8]: 101 % of control | T/C (dose: 132.0 mg/kg/injection, schedule: Q01DX009 (ip), vehicle: saline sonified): 113 % of control | T/C (dose: 200.0 mg/kg/injection, schedule: Q01DX009 (ip), vehicle: saline sonified): 118 % of control | T/C [9]: 97 % of control

CC[P+]1(c2ccccc2)CCCc2ccc3ccccc3c21 (configuration not stated)
T/C (dose: 6.25 mg/kg/injection, schedule: Q01DX009 (ip), vehicle: saline with Tween-80): 117 % of control

c1ccc(C2=C(c3ccccc3)C23SCCS3)cc1
T/C [10]: 101 % of control | T/C [11]: 94 % of control | T/C [12]: 97 % of control | T/C [13]: 100 % of control | T/C (dose: 400.0 mg/kg/injection, schedule: Q01DX009 (ip), vehicle: Klucel (hydroxypropylcellulose) (HPC)): 98 % of control | T/C [14]: 96 % of control

CC(=O)OC1CCC2(C)C(C1)C(OC(C)=O)CC1C3CCC(c4cccc(=O)o4)C3(C)CCC12 (configuration not stated)
T/C (dose: 100.0 mg/kg/injection, schedule: Q01DX001 (sc), vehicle: steriod suspending solution): 101 % of control | T/C (dose: 200.0 mg/kg/injection, schedule: Q01DX001 (sc), vehicle: steriod suspending solution): 102 % of control | T/C (dose: 400.0 mg/kg/injection, schedule: Q01DX001 (sc), vehicle: steriod suspending solution): 112 % of control

Nc1ccc(CCCCOc2ccccc2)cc1
T/C (dose: 25.0 mg/kg/injection, schedule: Q01DX001 (ip), vehicle: saline with Tween-80): 104 % of control | T/C (dose: 50.0 mg/kg/injection, schedule: Q01DX001 (ip), vehicle: saline with Tween-80): 95 % of control | T/C (dose: 100.0 mg/kg/injection, schedule: Q01DX001 (ip), vehicle: saline with Tween-80): 98 % of control and 106 % of control

Cc1ccc(CO)cc1
T/C [7]: 97 % of control | T/C [8]: 106 % of control | T/C [9]: 114 % of control | T/C (dose: 400.0 mg/kg/injection, schedule: Q01DX009 (ip), vehicle: saline): 92 % of control | T/C [15]: 106 % of control

CCOC(=O)C(C#N)C(CC)(CC)C1CCCCC1 (configuration not stated)
T/C (dose: 50.0 mg/kg/injection, schedule: Q01DX001 (ip), vehicle: carboxymethylcellulose (CMC)): 102 % of control | T/C (dose: 100.0 mg/kg/injection, schedule: Q01DX001 (ip), vehicle: carboxymethylcellulose (CMC)): 102 % of control | T/C (dose: 200.0 mg/kg/injection, schedule: Q01DX001 (ip), vehicle: carboxymethylcellulose (CMC)): 96 % of control | T/C (dose: 400.0 mg/kg/injection, schedule: Q01DX001 (ip), vehicle: carboxymethylcellulose (CMC)): 113 % of control

C1CCC2C(C1)CCC1C2OCN2CCCCC12 (configuration not stated)
T/C [16]: 104 % of control | T/C [8]: 98 % of control | T/C [17]: 101 % of control | T/C [9]: 98 % of control | T/C [18]: 96 % of control | T/C [15]: 98 % of control

C=C(Br)CNC(=O)Nc1ccccn1
T/C [10]: 93 % of control | T/C [12]: 96 % of control

O=C(O)c1ccccc1N=Cc1ccccc1Cl
T/C [16]: 101 % of control | T/C [17]: 108 % of control | T/C [18]: 93 % of control

COC1CC(O)C(O)C(C)O1 (configuration not stated)
T/C [19]: 93 % of control | T/C [20]: 100 % of control | T/C [4]: 91 % of control | T/C [21]: 96 % of control | T/C [22]: 91 % of control | T/C [5]: 108 % of control | T/C [23]: 98 % of control | T/C (dose: 400.0 mg/kg/injection, schedule: Q01DX009 (ip), vehicle: saline with Tween-80): 89 % of control | T/C [6]: 100 % of control

O=C1c2ccccc2C(=O)N1CNc1ccccn1
T/C [16]: 96 % of control | T/C [17]: 93 % of control | T/C [18]: 100 % of control

COc1ccc2c(c1)C(=O)CC(C)N2S(=O)(=O)c1ccc(C)cc1 (configuration not stated)
T/C (dose: 18.75 mg/kg/injection, schedule: Q04DX002 (ip), vehicle: Klucel (hydroxypropylcellulose) (HPC)): 95 % of control | T/C (dose: 37.5 mg/kg/injection, schedule: Q04DX002 (ip), vehicle: Klucel (hydroxypropylcellulose) (HPC)): 113 % of control | T/C (dose: 75.0 mg/kg/injection, schedule: Q04DX002 (ip), vehicle: Klucel (hydroxypropylcellulose) (HPC)): 103 % of control | T/C (dose: 150.0 mg/kg/injection, schedule: Q04DX002 (ip), vehicle: Klucel (hydroxypropylcellulose) (HPC)): 98 % of control and 103 % of control | T/C (dose: 300.0 mg/kg/injection, schedule: Q04DX002 (ip), vehicle: Klucel (hydroxypropylcellulose) (HPC)): 87 % of control

NC(N)=NCCCS(=O)(=O)Nc1ccc(Nc2c3ccccc3nc3cc([N+](=O)[O-])ccc23)cc1
T/C (dose: 3.0 mg/kg/injection, schedule: Q01DX009 (ip), vehicle: water): 186 % of control | T/C (dose: 6.0 mg/kg/injection, schedule: Q01DX009 (ip), vehicle: water): 160 % of control | T/C (dose: 6.25 mg/kg/injection, schedule: Q04DX002 (ip), vehicle: saline with Tween-80): 102 % of control | T/C (dose: 6.25 mg/kg/injection, schedule: Q04DX003 (ip), vehicle: water): 186 % of control | T/C (dose: 12.5 mg/kg/injection, schedule: Q04DX002 (ip), vehicle: saline with Tween-80): 120 % of control | T/C (dose: 25.0 mg/kg/injection, schedule: Q04DX002 (ip), vehicle: saline with Tween-80): 124 % of control | T/C (dose: 50.0 mg/kg/injection, schedule: Q04DX003 (ip), vehicle: water): 161 % of control | T/C [16]: 150 % of control | T/C [17]: 183 % of control

CCS(=O)(=O)/C=C/c1ccc(Cl)c(Cl)c1
T/C [11]: 110 % of control | T/C [13]: 97 % of control | T/C [14]: 107 % of control

O=C(Nc1ccccc1[N+](=O)[O-])C(=O)Nc1ccccc1[N+](=O)[O-]
T/C (dose: 50.0 mg/kg/injection, schedule: Q01DX009 (ip), vehicle: saline with Tween-80): 91 % of control | T/C [20]: 86 % of control | T/C [4]: 95 % of control | T/C [22]: 94 % of control | T/C [5]: 93 % of control

COC(=O)c1cc(=O)nc2n1C1OC(CO)C(O)C1O2 (configuration not stated)
T/C [19]: 95 % of control | T/C [21]: 101 % of control | T/C [23]: 93 % of control
